Experimental data published in patent US6605619B1, “Nitroxides as protectors against oxidatives stress” (The United States of America as represented by the …, priority 1992, dated 2003).
“Also recorded” adds a separate entry of the source. Marks after values point to notes of the source that are not given here. One block for each molecule: values may come before it.

Assays:
[1] = system: Chinese hamster V79 cells; assay: Protection of cells exposed to HX/XO, clonogenic survival; assay type: cell-based; conditions: for cell survival / protection from HX/XO: 0.05 U/ml XO + 0.5 mM HX, 37° C., 5 mM nitroxide, 100 U/ml catalase, SOD, 500 μM DF preincubated 2 h
Experimental: (§1) Chinese hamster V79 cells were grown in F12 medium supplemented with 10% fetal calf serum, penicillin, and streptomycin. Survival was assessed in all studies by the clonogenic assay. The plating efficiency range between 80-90%. Stock cultures of exponentially growing cells were trypsinized, rinsed, and plated (5×10^5 cells/dish) into a number of 100 mm petri dishes and incubated 16 h at 37° C. prior to experimental protocols. Cells were exposed for 1 h at 37° C. to either 0.5 mM hypoxanthine (HX)+0.05 U/ml of xanthine oxidase (XO) for varying lengths of time, or to H2O2 at different concentrations. To assess possible modulation in cytotoxicity, catalase, 100 U/ml; SOD, 100 μg/ml; DF, 500 μM; and 5 mM of each of the nitroxides from Table 1 were added to parallel cultures. CHD was prepared in a stock solution in ethanol and diluted into medium such that the final concentration was 5 mM. […] TEMPOL is water soluble and was prepared directly in tissue culture medium. […] DF was added either 2 h prior to or during treatment while the other agents were present only during HX/XO or H2O2 treatment. Following treatment, cells were rinsed, trypsinized, counted, and plated for macroscopic colony formation. For each dose determination cells were plated in triplicate and the experiments were repeated a minimum of two times. Plates were incubated 7 days, after which colonies were fixed with methanol/acetic acid, stained with crystal violet, and counted. Colonies containing >50 cells were scored. Error bars represent S.D. of the mean and are shown when larger than the symbol.

[2] = system: Chinese hamster V79 cells; assay: Protection of cells exposed to H2O2 under hypoxic conditions; assay type: cell-based; conditions: 600 μM H2O2, 1 h, 37° C.
Experimental: Some studies required exposure to H2O2 under hypoxic conditions. For these studies, cells dispersed in 1.8 ml of medium were plated into specially designed glass flasks (Russo et al, Radiat. Res., 103, 232-239, 1985). The flasks were sealed with soft rubber stoppers, and 19-gauge needles were pushed through to act as entrance and exit ports for a humidified gas mixture of 95% nitrogen/5% CO2 (Matheson Gas Products). […] Stoppered flasks were connected in series and mounted on a reciprocating platform and gassed at 37° C. for 45 min. […] After 45 min of gassing, the hypoxic H2O2 solution was added to the cell monolayer culture. The cells were exposed to H2O2 for 1 h under hypoxic conditions. N2 gas flow was maintained during the H2O2 exposure. In parallel flasks, DF and CHD were added as described above, and were present during the entire gassing procedure. Following treatment, cell survival was assessed as described above.

[3] = SOD-inhibitable ferricytochrome c reduction assay, rate constants of reaction with O2 (SOD-like activity); assay type: biochemical; conditions: low ionic strength (10 mM HEPES), pH 7.0, 22° C.
Text: As a further check, the reaction of representatives of both 5- and 6-membered cyclic nitroxides with O2 was studied. The SOD-inhibitable ferricytochrome c reduction assay (Fridovich, Handbook of Methods for Oxygen Radical Research, 213-215, 1985) was used to determine rate constants of reaction with O2. […] The reaction was started by adding 0.01 U/ml XO and the rate of ferricytochrome c reduction, in the absence (V) and in the presence (v) of various nitroxides, was spectrophotometrically followed at 550 nm. Both reference and sample cuvettes contained all the reagents, with the reference cuvette containing 100 units/ml SOD, thereby eliminating spurious reactions from interfering with the determination of rate constants. Data were analyzed by plotting V/v as a function of [nitroxide] and k1 was calculated, knowing kCytC+superoxide, according to:
(V/v)−1=k1x[nitroxide]/kCytC+superoxidex[Cyt−c^III].

[4] = Water/octanol partition of nitroxides, ratio determined by EPR; assay type: physicochemical; conditions: Octanol:water
Text: CHD, 2-spirocyclohexane doxyl(2-spirocyclohexane-5,5-dimethyl-3-oxazolidinoxyl) and OXANO, 2-ethyl-2,5,5-trimethyl-3-oxazolidine-1-oxyl as well as other nitroxides were synthesized as described by Keana et al (J. Am. Chem. Soc., 89, 3055-3056, 1967) For the general synthesis of the cyclic amines, the appropriate starting ketone was reacted with 2-amino-2-methyl-1-propanol in benzene in the presence of catalytic amounts of p-toluene sulfonic acid. As the cyclic structure formed, water was eliminated. The volume of water collected in a Dean Stark apparatus was monitored and used to gauge the reaction progress. The amines thus produced were purified through fractional distillation under reduced pressure, characterized by 220 MHz ^1H NMR, IR, UV, either EI or CI mass spectroscopy, and subsequently oxidized to the corresponding nitroxides using m-chloroperbenzoic acid. The nitroxides were purified by silica flash chromatography (Still et al, J. Org. Chem., 43, 2923-2925, 1978). Water/octanol ratios were determined by placing a quantity of nitroxide in water+octanol within a separatory funnel. The mixture was shaken thoroughly and allowed to separate for 15 min, whereupon aliquots were taken from both fractions and the ratio of nitroxide distribution was determined using electron paramagnetic resonance (EPR) spectroscopy, by comparing the intensities of signal obtained under N2.

[5] = EPR signal of nitroxides exposed to O2 flux formed by HX/XO (spin-loss); assay type: biochemical; conditions: for Steady state EPR signal (%): % from total R′RNO + R′RNOH after exposure to 5 mM HX + 0.03 U/ml XO in air-saturated PBS pH 7.2; for effect of O2 on the EPR signal: exposure to O2 flux formed by HX/XO
Experimental: For EPR experiments, samples (0.05-0.1 ml) either of solutions of chemicals or cell suspensions were drawn by a syringe into a gas-permeable teflon capillary of 0.8 mm inner diameter, 0.05 mm wall thickness (Zeus Industrial Products, Inc. Raritan, N.J.). Each capillary was folded twice, inserted into a narrow quartz tube which was open at both ends (2.5 mm ID), and then placed horizontally into the EPR cavity. During the experiments, gases of desired compositions were blown around the sample without having to disturb the alignment of the tube within the EPR cavity. EPR spectra were recorded in a Varian E4 (or E9) X-band spectrometer, with field set at 3357 G, modulation frequency of 100 KHz, modulation amplitude of 1 G and non-saturating microwave power. The EPR spectrometer was interfaced to an IBM-PC through an analog-to-digital converter and a data translation hardware (DT2801) and the spectra were digitized using commercial acquisition software, enabling subtraction of background signals. To study the kinetics of the spin-loss, the spectra were deliberately overmodulated, and the magnetic field was kept constant while the intensity of the EPR signal was followed.

[6] = comparison value for native SOD; cited from earlier work
[7] = system: Chinese hamster V79 cells; assay: Protection of cells exposed to H2O2, clonogenic survival; assay type: cell-based; conditions: H2O2 for 1 h, 37° C., full medium; 5 mM nitroxide; 100 U/ml catalase; 100 μg/ml SOD; 500 μM DF preincubated 2 h
Experimental: as §1, with “For each dose determination cells were plated in triplicate and the experiments were repeated a minimum of two times.” left out, “Error bars represent S.D. of the mean and are shown when larger than the symbol.” left out

[8] = system: kidneys of mice; assay: Post-irradiation protection after local kidney irradiation, weight gain and kidney histology; assay type: in vivo; conditions: 28 weeks
Experimental: This hypothesis has been tested in experiments where both kidneys of mice were locally irradiated with single, acute doses of radiation. […] At 28 weeks after irradiation, the animals were sacrificed, and histological analysis was performed on their kidneys to assess damage.

[9] = system: DNA-Fe(II); assay: Reaction of nitroxide with DNA-Fe(II), EPR spin-loss and OD353nm; assay type: biochemical, Salmon; conditions: TEMPOL hypoxically mixed with DNA-Fe(II)
Experimental: All solutions always contained 0.1 mg/ml Salmon DNA. The appearance of DNA-Fe(III) was spectrophotometrically monitored at 353 nm, whereas the spin-loss of CHD was monitored by following its EPR signal. To study the time-dependence of ΔOD353nm (∘), 1 mM CHD was mixed with 0.1 mM Fe(II). To follow the spin-loss of CHD (□), 1 mM Fe(II) was mixed with 0.1 mM CHD.
It was also questioned whether the aerobic and hypoxic protection by CHD to H2O2 exposure was a result of CHD directly accepting electrons from ferrous ions, thereby preventing generation of .OH. Because cellular iron is chelated, the possible reaction of nitroxide with chelated iron(II) was examined by repeating the experiment in the presence of DNA. To study the possibility of nitroxide-induced oxidation of transition metals, CHD was hypoxically mixed with iron(II) in the presence of 0.1 mg/ml Salmon DNA. Consequently, DNA-Fe(III) was formed and the nitroxide EPR signal disappeared. The reaction kinetics were investigated by maintaining either CHD or Fe(II) in excess while the absorbance due to DNA-Fe(III) and the nitroxide spin-loss were monitored respectively (FIG. 6). Both the decay of the EPR signal and the appearance of the OD353nm obeyed pseudo 1st order kinetics from which the 2nd order reaction rate constant was calculated as 44 M^−1s^−1 or 33 M^−1s^−1 using the data from EPR or optical absorption, respectively.

[10] = system: Chinese hamster V79 cells; assay: In vitro protection against ionizing radiation, clonogenic survival; assay type: cell-based; conditions: 100 mM TEMPOL 10 min prior to irradiation
[11] = system: V79 cells; assay: Cytotoxicity of the agents alone, clonogenic assay; assay type: cell-based, Chinese hamster; conditions: concentrations used: catalase 100 U/ml; SOD 100 μg/ml; DF 500 μM; nitroxides 5 mM
Experimental: For subsequent studies, the most lipophilic nitroxide, CHD, and the most hydrophilic one, TEMPOL, were chosen.
Chinese hamster V79 cells were grown in F12 medium supplemented with 10% fetal calf serum, penicillin, and streptomycin. Survival was assessed in all studies by the clonogenic assay. The plating efficiency range between 80-90%. Stock cultures of exponentially growing cells were trypsinized, rinsed, and plated (5×10^5 cells/dish) into a number of 100 mm petri dishes and incubated 16 h at 37° C. prior to experimental protocols. Cells were exposed for 1 h at 37° C. to either 0.5 mM hypoxanthine (HX)+0.05 U/ml of xanthine oxidase (XO) for varying lengths of time, or to H2O2 at different concentrations. To assess possible modulation in cytotoxicity, catalase, 100 U/ml; SOD, 100 μg/ml; DF, 500 μM; and 5 mM of each of the nitroxides from Table 1 were added to parallel cultures. CHD was prepared in a stock solution in ethanol and diluted into medium such that the final concentration was 5 mM. […] TEMPOL is water soluble and was prepared directly in tissue culture medium. […] Following treatment, cells were rinsed, trypsinized, counted, and plated for macroscopic colony formation. […] Plates were incubated 7 days, after which colonies were fixed with methanol/acetic acid, stained with crystal violet, and counted. Colonies containing >50 cells were scored. […]

[12] = system: C3H mice; assay: Nitroxide-induced weight loss, chronic oral administration in drinking water; assay type: in vivo; conditions: 10 mg per ml in drinking water
Text: Thus, nitroxide given over extended periods appears to cause weight loss in animals.

[13] = system: C3H mice; assay: Protection of mice against whole body radiation, 30 day survival; assay type: in vivo
Experimental: Controls were given saline.
Controls were given saline. Survival was recorded 30 days after exposure to radiation. The LD50(30) refers to that dose of radiation at which 50% of the mice survived 30 days after exposure.

Molecule: CC(=O)N(O)CCCCCNC(=O)CCC(=O)N(O)CCCCCNC(=O)CCC(=O)N(O)CCCCCN [DF, Desferrioxamine, reference compound]
- cell survival / protection from HX/XO [1]: complete protection
- protection from HX/XO, DF added simultaneously ([1]; DF addition simultaneously with HX/XO (data not shown)): only partial protection
- protection against H2O2 cytotoxicity under hypoxic conditions [2]: complete protection

- Partition coefficient [4]: 10
Molecule: CCC1(C)OC(C)(C)CN1[O] (centres unmarked) [OXANO, 2-ethyl-2,5,5-trimethyl-3-oxazolidine-1-oxyl]
- kR′RNO + O2 [3]: 1.1 × 10^3 M − 1^s − 1
- Steady state EPR signal (%) [5]: 50%

Molecule: SOD: superoxide dismutase (SOD), obtained from Sigma
- cell survival / protection from HX/XO [1]: not altered
- kcat of native SOD [6]: 2.3e+09 M⁻¹ s⁻¹

Molecule: CC1(C)CC(O)CC(C)(C)N1[O] [TEMPOL, 4-hydroxy-2,2,6,6-tetramethylpiperidine-1-oxyl]
- protection against H2O2 cytotoxicity [7]: fully protected; also recorded: complete protection
- kR′RNO + O2 [3]: 3.4 × 10^5 M − 1^s − 1
- kidney histology, TEMPOL alone ([8]; no radiation): identical to a section from a kidney of a control animal
- kidney histology, 24 Gy plus TEMPOL ([8]; single dose 24 Gy, oral TEMPOL two weeks post-irradiation): protection against glomerular sclerosis and tubular cell loss
- cell survival / protection from HX/XO [1]: fully protected
- 2nd order reaction rate constant with DNA-Fe(II) [9]: 40 M⁻¹ s⁻¹
- extent of protection against irradiation [10]: approximately 2.5 fold
- Steady state EPR signal (%) [5]: 100%
- effect of O2 on the EPR signal [5]: no effect
- cytotoxicity of agent alone [11]: Neither catalase, SOD, DF, CHD, nor TEMPOL were cytotoxic alone
- toxicity on chronic oral administration ([12]; >3 weeks): no apparent toxicity
- reduction of weight compared to controls ([12]; chronic oral administration (>3 weeks)): 12.5%
- toxicity in irradiated mice ([13]; 275 mg/kg intraperitoneally): no toxicity
- increase of LD50(30) ([13]; 275 mg/kg intraperitoneally 10 min prior to whole body radiation 3 Gy to 13 Gy, versus saline controls): approximately 25%

Molecule: CC1(C)CCCC(C)(C)N1[O] [TEMPO, 2,2,6,6-tetramethylpiperidine-1-oxyl]
- kR′RNO + O2 [3]: 1.3 × 10^6 M − 1^s − 1
- Steady state EPR signal (%) [5]: 100%
- effect of O2 on the EPR signal [5]: no effect

B1: catalase: catalase (CAT), enzyme that can convert H2O2 to H2O (protein, UniProt P00432 2-527, looked up)
Catalase: ADNRDPASDQMKHWKEQRAAQKPDVLTTGGGNPVGDKLNSLTVGPRGPLLVQDVVFTDEMAHFDRERIPERVVHAKGAGAFGYFEVTHDITRYSKAKVFEHIGKRTPIAVRFSTVAGESGSADTVRDPRGFAVKFYTEDGNWDLVGNNTPIFFIRDALLFPSFIHSQKRNPQTHLKDPDMVWDFWSLRPESLHQVSFLFSDRGIPDGHRHMNGYGSHTFKLVNANGEAVYCKFHYKTDQGIKNLSVEDAARLAHEDPDYGLRDLFNAIATGNYPSWTLYIQVMTFSEAEIFPFNPFDLTKVWPHGDYPLIPVGKLVLNRNPVNYFAEVEQLAFDPSNMPPGIEPSPDKMLQGRLFAYPDTHRHRLGPNYLQIPVNCPYRARVANYQRDGPMCMMDNQGGAPNYYPNSFSAPEHQPSALEHRTHFSGDVQRFNSANDDNVTQVRTFYLKVLNEEQRKRLCENIAGHLKDAQLFIQKKAVKNFSDVHPEYGSRIQALLDKYNEEKPKNAVHTYVQHGSHLSAREKANL
- cell survival / protection from HX/XO [1]: complete protection
